Test results from ChEMBL document CHEMBL1201862, “PubChem BioAssay data set” (2004).
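Five concentrations, 48 hours, 96-well plates. GI50 = concentration required for 50% inhibition of growth.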 Active and inactive are the calls of the source. Cut-off read from the data, not from the text of the source: active = GI50 up to about 1.1 µM and inactive = higher.

Columns and labels:
Assay in all cases: inhibition of tumour cell growth, NCI panel, 48 h
NCI-H23 = test system: NCI-H23
786-0 = test system: 786-0
K562 = test system: K562
Malme-3M = test system: Malme-3M
LOX IMVI = test system: LOX IMVI
M14 = test system: M14
SNB-75 = test system: SNB-75
UACC-257 = test system: UACC-257
SR = test system: SR
SK-MEL-28 = test system: SK-MEL-28
CCRF-CEM = test system: CCRF-CEM
SK-OV-3 = test system: SK-OV-3
HL-60 = test system: HL-60
HT-29 = test system: HT-29
SNB-19 = test system: SNB-19
SW-620 = test system: SW-620
SF-295 = test system: SF-295
NCI-H460 = test system: NCI-H460
MCF7 = test system: MCF7

Compound | GI50 (NCI-H23) | GI50 (786-0) | GI50 (K562) | GI50 (Malme-3M) | GI50 (LOX IMVI) | GI50 (M14) | GI50 (SNB-75) | GI50 (UACC-257) | GI50 (SR) | GI50 (SK-MEL-28) | GI50 (CCRF-CEM) | GI50 (SK-OV-3) | GI50 (HL-60) | GI50 (HT-29) | GI50 (SNB-19) | GI50 (SW-620) | GI50 (SF-295) | GI50 (NCI-H460) | GI50 (MCF7)
Oc1cc(-c2cccs2)nc2cc3c(cc12)OCO3 | 3.78 µM (inactive) | 3.78 µM (inactive) | 2.42 µM (inactive) | 3.08 µM (inactive) | 4.92 µM (inactive) | 2.55 µM (inactive) | 1.41 µM (inactive) | 3.72 µM (inactive) | 4.73 µM (inactive) | 9.33 µM (inactive) | 3.66 µM (inactive) | 2.7 µM (inactive) | 4.37 µM (inactive) | 13.6 µM (inactive) | 10.4 µM (inactive) | 3.03 µM (inactive) | 3.48 µM (inactive) | 3.24 µM (inactive) | 
COc1c(OC(C)=O)cc2c(OC(C)=O)c1CC(C)CC(OC)C(O)C(C)/C=C(\C)C(OC(N)=O)C(OC)/C=C\C=C(/C)C(=O)N2 (stereo not drawn) | > 100 µM (inactive) | > 81.3 µM (inactive) | > 26.3 µM (inactive) | 98.9 µM (inactive) | > 100 µM (inactive) | > 100 µM (inactive) | > 100 µM (inactive) | > 100 µM (inactive) | > 44.2 µM (inactive) | > 100 µM (inactive) | > 53.5 µM (inactive) | > 100 µM (inactive) | > 41.5 µM (inactive) | > 81.8 µM (inactive) | > 100 µM (inactive) | 24 µM (inactive) | > 100 µM (inactive) | > 100 µM (inactive) | 
COc1cc2c(cc1OCCCC(=O)Nc1cc(C(=O)Nc3cc(C(=O)Nc4cc(C(=O)NCCCN(C)C)n(C)n4)n(C)n3)n(C)n1)N=CC1CCCN1C2=O (stereo not drawn) | 26.5 µM (inactive) | 4.81 µM (inactive) | 4.43 µM (inactive) | 10.8 µM (inactive) | 3.07 µM (inactive) | 28 µM (inactive) | 27.9 µM (inactive) | 19 µM (inactive) | 2.77 µM (inactive) | 13.4 µM (inactive) | 2.72 µM (inactive) | 45.2 µM (inactive) | 6.14 µM (inactive) | 20 µM (inactive) | 18.3 µM (inactive) | 5.21 µM (inactive) | 32.5 µM (inactive) | 41.4 µM (inactive) | 21.1 µM (inactive)
CN(C)C1(N(C)C)Oc2c(c(=O)n(C)c(=O)n2C)C(c2ccccc2Br)C1(F)F (stereo not drawn) | > 100 µM (inactive) | > 100 µM (inactive) | > 100 µM (inactive) |  | > 100 µM (inactive) | > 100 µM (inactive) | > 100 µM (inactive) | > 100 µM (inactive) |  | > 100 µM (inactive) | > 100 µM (inactive) | > 100 µM (inactive) |  |  | > 100 µM (inactive) | > 100 µM (inactive) | > 100 µM (inactive) | > 100 µM (inactive) | > 100 µM (inactive)
O=S(=O)(C1=CC(S(=O)(=O)c2ccccc2)COC1)c1ccccc1 (stereo not drawn) | > 100 µM (inactive) | > 100 µM (inactive) | > 100 µM (inactive) | > 100 µM (inactive) | > 100 µM (inactive) | > 100 µM (inactive) | > 100 µM (inactive) | > 100 µM (inactive) | > 100 µM (inactive) | > 100 µM (inactive) | > 100 µM (inactive) | > 100 µM (inactive) | > 100 µM (inactive) | > 100 µM (inactive) | > 100 µM (inactive) | > 100 µM (inactive) | > 100 µM (inactive) | > 100 µM (inactive) | 
C[C@@H](O)C(=O)N1[C@@H]2CC3CC[C@]2(CS1(=O)=O)C3(C)C | 62.2 µM (inactive) | 52.8 µM (inactive) | 68.1 µM (inactive) |  | > 100 µM (inactive) | 93.5 µM (inactive) | > 100 µM (inactive) | > 100 µM (inactive) | 18 µM (inactive) | 76.2 µM (inactive) | 24.2 µM (inactive) | > 100 µM (inactive) | 28.9 µM (inactive) | > 100 µM (inactive) | 65.8 µM (inactive) | 28.1 µM (inactive) | > 100 µM (inactive) | 85.9 µM (inactive) | > 100 µM (inactive)
CCOC(=O)C1C(=O)c2ccccc2CN1Cc1ccccc1 (stereo not drawn) | > 100 µM (inactive) | > 100 µM (inactive) | > 100 µM (inactive) | > 100 µM (inactive) | > 100 µM (inactive) | > 100 µM (inactive) | > 100 µM (inactive) | > 100 µM (inactive) | > 100 µM (inactive) | > 100 µM (inactive) | > 100 µM (inactive) | > 100 µM (inactive) | > 100 µM (inactive) | > 100 µM (inactive) | > 100 µM (inactive) | > 100 µM (inactive) | > 100 µM (inactive) | > 100 µM (inactive) | 
O=[N+]([O-])c1ccc(Cl)c(C2CC(c3cccc4ccccc34)=Nc3ccccc3[S+]2[O-])c1 (stereo not drawn) | 8.75 µM (inactive) | 9.93 µM (inactive) | 3.97 µM (inactive) | 18.9 µM (inactive) | 15.4 µM (inactive) | 17.7 µM (inactive) | 5.86 µM (inactive) | 17 µM (inactive) | 10.5 µM (inactive) | 19.4 µM (inactive) | 2.4 µM (inactive) | > 100 µM (inactive) | 4.89 µM (inactive) | 10.9 µM (inactive) | 29 µM (inactive) | 7.85 µM (inactive) | 18.2 µM (inactive) | 19.4 µM (inactive) | 
CCc1cc(Cc2cc(CC)c(NC(=O)C(=O)Cc3ccccn3)c(CC)c2Cl)c(Cl)c(CC)c1NC(=O)C(=O)Cc1ccccn1 | > 100 µM (inactive) | > 100 µM (inactive) | > 100 µM (inactive) | > 100 µM (inactive) | 41.8 µM (inactive) | 75.2 µM (inactive) | > 100 µM (inactive) | 40.4 µM (inactive) | > 100 µM (inactive) | > 100 µM (inactive) | > 100 µM (inactive) | > 100 µM (inactive) | > 100 µM (inactive) | 70 µM (inactive) | > 100 µM (inactive) | 15.7 µM (inactive) | > 100 µM (inactive) | > 100 µM (inactive) | 
COc1ccc(OC)c(-c2cc(O)c3cc4c(cc3n2)OCO4)c1 | 3.44 µM (inactive) | 6.47 µM (inactive) | 4.11 µM (inactive) | 3.49 µM (inactive) | 6.07 µM (inactive) | 3.94 µM (inactive) | 3.44 µM (inactive) | 7.69 µM (inactive) | 3.96 µM (inactive) | 5.87 µM (inactive) | 4.36 µM (inactive) | 3.49 µM (inactive) | 2.96 µM (inactive) | 4.12 µM (inactive) | 18.5 µM (inactive) | 3.83 µM (inactive) | 4.15 µM (inactive) | 3.41 µM (inactive) | 
COc1ccc(NC(=O)CC(=O)NN2C(=O)/C(=C/c3ccc(N(CCC#N)CCC#N)cc3C)N=C2/C=C\c2ccccc2)cc1 | > 100 µM (inactive) | > 100 µM (inactive) | > 100 µM (inactive) | > 100 µM (inactive) | > 100 µM (inactive) | > 100 µM (inactive) | 59.3 µM (inactive) | > 100 µM (inactive) | > 100 µM (inactive) | > 100 µM (inactive) | > 100 µM (inactive) | > 100 µM (inactive) | > 100 µM (inactive) | > 100 µM (inactive) | > 100 µM (inactive) | > 100 µM (inactive) | > 100 µM (inactive) | > 100 µM (inactive) | 
COc1ccc(OC)c(NC(=O)CCC/C(CC(=O)c2ccc(O)c(OC)c2)=N\Nc2nnc(C)n2N)c1 | > 100 µM (inactive) | > 100 µM (inactive) | 32.4 µM (inactive) | > 100 µM (inactive) | > 100 µM (inactive) | > 100 µM (inactive) | 37.9 µM (inactive) | > 100 µM (inactive) | > 100 µM (inactive) | > 100 µM (inactive) | > 100 µM (inactive) | > 100 µM (inactive) | 90.2 µM (inactive) | > 100 µM (inactive) | > 100 µM (inactive) | > 100 µM (inactive) | > 100 µM (inactive) | > 100 µM (inactive) | 
COc1cc(C2=NN(C)C(c3ccc([N+](=O)[O-])o3)C2)cc(OC)c1OC (stereo not drawn) | > 100 µM (inactive) | 23.1 µM (inactive) | 52 µM (inactive) | > 100 µM (inactive) | 69 µM (inactive) | 53.8 µM (inactive) | 83.2 µM (inactive) | > 100 µM (inactive) | 0.0736 µM (active) | 79.8 µM (inactive) | 22.2 µM (inactive) | > 100 µM (inactive) | 18.2 µM (inactive) | 72.4 µM (inactive) | > 100 µM (inactive) | 11 µM (inactive) | > 100 µM (inactive) | 41.9 µM (inactive) | 
CC1=C(C(=O)Nc2ccc(C)cc2)C(c2cccc([N+](=O)[O-])c2)C(C(=O)Nc2ccc(C)cc2)=C(C)N1 | 25.2 µM (inactive) | 26.2 µM (inactive) | 16.9 µM (inactive) | 28.2 µM (inactive) | 16.2 µM (inactive) | 16.9 µM (inactive) | 16.7 µM (inactive) | 21.2 µM (inactive) | 21.2 µM (inactive) | 28.8 µM (inactive) | 7.89 µM (inactive) | 55.2 µM (inactive) | 16.1 µM (inactive) | 17.2 µM (inactive) | 28.1 µM (inactive) | 35.2 µM (inactive) | 28.1 µM (inactive) | 19.7 µM (inactive) | 
CC(C)(C)c1nc2c(o1)/C(=N\c1ccccc1)c1ccccc1C2=O | 1.44 µM (inactive) | 24.4 µM (inactive) | 3.55 µM (inactive) | 1.4 µM (inactive) | 0.603 µM (active) | 2.33 µM (inactive) | 5.61 µM (inactive) | 1.72 µM (inactive) | 3.94 µM (inactive) | 4.4 µM (inactive) | 5.61 µM (inactive) | 34.5 µM (inactive) | 2.87 µM (inactive) | 22.7 µM (inactive) | 8.17 µM (inactive) | 4.47 µM (inactive) | 3.99 µM (inactive) | 6.12 µM (inactive) | 
